{"source": "patent US7820374B2", "about": "“Detection methods based on HR23 protein binding molecules” (Erasmus Universiteit Rotterdam, priority 2001, dated 2010)", "key": {"[1]": {"test_system": "DKO cells expressing hXPC-GFP/hHR23B", "assay": "XPC-GFP accumulation in living DKO cells expressing hXPC-GFP/hHR23B after exposure to agents (fluorescence microscopy)", "assay_type": "cell-based, mouse", "experimental": "Cells stably expressing hXPC-GFP/hHR23B were rinsed with PBS, exposed to UV-C light (254 nm; Philips TUV lamp, dose as indicated in the text) and subsequently cultured at 37° C. for various time periods (as indicated in the text). XPC was detected either by immunoblot analysis or by visualization in living cells using fluorescence microscopy. A similar approach was used to study the effect of N-acetoxy-2-acetylaminofluorene (NA-AAF, final concentration 50 or 100 μM), mitomycin C (MMC, Sigma, final concentration 1.2 or 2.4 μg/ml), ionizing radiation (γ-rays from a ^137Cs source, single dose of 6 and 10 Gy), the proteasome inhibitor N-CBZ-LEU-LEU-LEU-AL (CBZ-LLL, Sigma, final concentration 5 or 10 μM), the transcription inhibitor 5,6-dichloro-1β-D-ribofuranosyl-benzimidazole (DRB, Sigma, final concentration of 100 μM, 2-3 hrs), the translation inhibitor cyclohexamide (CHX, Boehringer, final concentration 30, 50, and 100 μg/ml, 1-3 hours), heat shock (39.5 and 41° C., for 2-12 hrs), and the nuclear export inhibitor leptomycin B (LMB, Sigma, final concentration 10 ng/ml).\nImmunofluorescent microscopy images were obtained with either a Leitz Aristoplan microscope equipped with epifluorescene optics and a PlanApo 63×/1.40 oil immersion lens or a Leica DMRBE microscope equipped with epifluorescene optics and a PL Fluotar 100×/1.30 oil immersion lens. For the detection of GFP-tagged proteins in the living cell, an Olympus IX70 microscope equipped with epifluorescence optics and Olympus PlanApo 60×/1.40 oil immersion lens was used. GFP images were obtained after excitation with 455-490 and long pass emission filter (>510 nm). Cy-3 images were obtained after excitation with 515-560 and long pass emission filter (580 nm)."}, "[2]": {"test_system": "CRM1/Exportin1-mediated nuclear export of XPC-GFP", "assay": "Heterokaryon nuclear-cytoplasmic shuttling assay (DKO cells expressing XPC-GFP/hHR23B fused to HeLa cells)", "assay_type": "cell-based, mouse/human heterokaryon", "settings": "LMB 10 ng/ml directly after cell fusion; XPC-GFP induced by 10 J/m^2 UV-C 6 hr prior to fusion; 4 hr after fusion", "experimental": "The shuttling assay using heterokaryons was performed as described (Borer et al., 1989). One day before cell fusion, DKO cells stably expressing hXCPC-GFP/hHR23B and HeLa cells were seeded in a 1:1 ratio on coverslips. Six hours prior to fusion, cells were irradiated with 10 J/m^2 UV-C or treated with 10 μM CBZ-LLL. Cell-fusion was induced (after washing with PBS) by treatment with 50% polyethylene glycol 6,000 in HANKS™ (Gibco) for 2 min followed by (3×) washing with PBS. Finally, cells were cultured in fresh medium either supplemented with or without leptomycin B (LMB, final concentration 10 ng/ml). Three to five hours after fusion, cells were fixed with 2% paraformaldehyde and immunostained with rat monoclonal anti-HA (to monitor the XPC-GFP-His6HA protein) and rabbit polyclonal anti-human ERCC1 (to distinguish human nuclei from mouse nuclei, since it specifically recognizes human ERCC1) and subsequently with appropriate secondary antibodies (see above)."}}, "note": "Where a SMILES comes first, the peptide text is derived from it. The star is where a group is joined. Cbz = O=C(OCc1ccccc1)*"}
{"molecule": "CC(=O)ON(C(C)=O)c1ccc2c(c1)Cc1ccccc1-2", "note": "[NA-AAF, N-acetoxy-2-acetylaminofluorene]", "values": [{"measurement": "XPC accumulation (hXPC-GFP fluorescence)", "setting": "[1]; NA-AAF 50 and 100 μM, within 6 to 8 hrs", "value": "very potent UV-like response in all cells"}]}
{"molecule": "CO[C@@]12[C@H](COC(N)=O)C3=C(C(=O)C(C)=C(N)C3=O)N1C[C@@H]1N[C@@H]12", "note": "[MMC, mitomycin C]", "values": [{"measurement": "XPC accumulation (hXPC-GFP fluorescence)", "setting": "[1]; MMC 1.2 and 2.4 μg/ml", "value": "failed to provoke detectable XPC accumulation"}]}
{"molecule": "C[C@@H]1C[C@@H]([C@H](O)CC2CC(=O)NC(=O)C2)C(=O)[C@@H](C)C1", "note": "[cyclohexamide]", "values": [{"measurement": "XPC fluorescence", "setting": "[1]; cyclohexamide 30 and 50 μg/ml", "value": "no enhanced XPC fluorescence was found"}]}
{"molecule": "OC[C@H]1O[C@@H](n2cnc3cc(Cl)c(Cl)cc32)[C@H](O)[C@@H]1O", "note": "[DRB, 5,6-dichloro-1β-D-ribofuranosyl-benzimidazole]", "values": [{"measurement": "induction of XPC-GFP fluorescence", "setting": "[1]; DRB 100 μM alone, no DNA damage", "value": "No induction of XPC-GFP fluorescence was observed"}, {"measurement": "UV-induced XPC-GFP accumulation", "setting": "[1]; preincubation with DRB (2-3 hrs) prior to UV treatment, data not shown", "value": "prevented UV-induced XPC-GFP accumulation"}]}
{"molecule": "CC(C)C[C@@H](C=O)NC(=O)[C@H](CC(C)C)NC(=O)[C@H](CC(C)C)NC(=O)OCc1ccccc1", "note": "[CBZ-LLL, N-CBZ-LEU-LEU-LEU-AL] (Cbz-Leu-Leu-Leu-aldehyde)", "values": [{"measurement": "reversibility of XPC-GFP accumulation", "setting": "[1]; CBZ-LLL 5 and 10 μM, after drug removal (not shown)", "value": "reversible upon drug removal"}, {"measurement": "XPC-GFP accumulation", "setting": "[1]; CBZ-LLL 5 and 10 μM, confirmed by immunoblot and anti-HA immunocytochemistry", "value": "all cells displayed a striking XPC-GFP accumulation in time"}]}
{"molecule": "CCC(=C/[C@H](C)C/C=C/C(C)=C/[C@@H](C)C(=O)[C@@H](C)[C@H](O)[C@@H](C)C/C(C)=C/C(=O)O)/C=C/[C@@H]1OC(=O)C=C[C@@H]1C", "note": "[LMB, leptomycin B]", "values": [{"measurement": "exchange of nuclear XPC-GFP from mouse (DKO) nuclei to human (HeLa) nuclei", "setting": "[2]", "value": "prevented this exchange"}]}
